The source of these data is PubChem BioAssay (NCI).

Converted amounts (≈) assume the structure as drawn.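 Compound exposure: 48 hours, 5 concentrations, 96-well plates. Here, GI50 denotes the concentration required for 50% inhibition of growth. At the TGI there is no net growth.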

Some test systems named below: P388 leukemia; P388/ADR leukemia; SN12K1 renal.
What all share (experiment): NCI tumour cell line growth inhibition, 48 h

In the case of `COC(C(=O)C(O)C(C)O)C1Cc2cc3cc(OC4CC(OC5CC(O)C(O)C(C)O5)C(O)C(C)O4)c(C)c(O)c3c(O)c2C(=O)C1OC1CC(OC2CC(O)C(OC3CC(C)(O)C(O)C(C)O3)C(C)O2)C(O)C(C)O1` (configuration not stated), the GI50 is 0.056 ng/mL (≈ 0.0516 nM) in the assay with P388 leukemia, 1.32 ng/mL (≈ 1.22 nM) in the assay with P388/ADR leukemia and 0.0304 ng/mL (≈ 0.028 nM) in the assay with SN12K1 renal. The TGI in the assay on P388 leukemia came out at 0.798 ng/mL (≈ 0.735 nM); in the assay on P388/ADR leukemia it was 20.4 ng/mL (≈ 18.8 nM); in the assay with SN12K1 renal, 150 ng/mL.
`C/C(=N\NC(=S)N1CCN(C2CCCCCC2)CC1)c1ccccn1` showed a TGI in the assay on SN12K1 renal of 1.56 µM.
